Columns and labels:
[1] = tested on: mutant strain containing both the K103N and Y181C mutations; experiment: Spread assay, mutant strain containing both K103N and Y181C; format: cell-based, HIV; settings: Human immunodeficiency virus 1; analogous spread assay, K103N and Y181C double mutant strain; read-out: CIC95
Experimental: Assays for the inhibition of acute HIV-1 infection of T-lymphoid cells (alternatively referred to herein as the “spread assay”) were conducted in accordance with Vacca, J. P. et al., Proc. Natl. Acad. Sci. USA 1994, 91: 4096. The assays (using 10% FBS) tested for inhibition of wild type HIV-1 and of HIV strains containing the Y181C or K103N mutation. […] (Note that the compound of Example 6 was tested only up to a 833 nM concentration and the CIC95 value was determined to be >833 nM. The compound of Example 78 was not tested in the Y1818C assay.) The compounds of Examples 1 to 119 (including Examples 70A and 70B) had CIC95 values of less than 1000 nanomolar in the assay employing the K103N mutant strain. In an analogous assay employing a mutant strain containing both the K103N and Y181C mutations, the compounds of Examples 70A, 70B and 78-115 had CIC95 values of less than 1000 nanomolar.

[2] = tested on: HIV strain containing the Y181C mutation; experiment: Spread assay, Y181C mutant strain; format: cell-based; settings: Human immunodeficiency virus 1; spread assay, 10% FBS, Y181C mutant strain; read-out: CIC95
Method in brief: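 Acute HIV-1 infection of T-lymphoid cells run in the presence of 10% FBS, […]; potency expressed as CIC95.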

Row | SMILES | IC95 [1] [µM] | IC95 [2] [µM]
1 | CC(C)c1c(C(=O)N(C)Cc2cc(N)ncc2F)[nH]c(C(N)=O)c1S(=O)(=O)c1ccccc1 [Example 104] | < 1 | < 8
2 | Cc1cc(C)cc(S(=O)(=O)c2c(C(N)=O)[nH]c(C(=O)N(C)Cc3ccncc3Cl)c2C)c1 [Example 105, N5-[(3-chloropyridin-4-yl)methyl]-3-[(3,5-dimethylphenyl)sulfonyl]-N5,4-dimethyl-1H-pyrrole-2,5-dicarboxamide] | < 1 | < 8
3 | CC(C)c1c(C(=O)N(C)Cc2ccncc2Cl)[nH]c(C(N)=O)c1S(=O)(=O)c1ccccc1 [Example 106, N2-[(3-chloropyridin-4-yl)methyl]-3-isopropyl-N2-methyl-4-(phenylsulfonyl)-1H-pyrrole-2,5-dicarboxamide] | < 1 | < 8
4 | Cc1cc(C)cc(S(=O)(=O)c2c(C(N)=O)[nH]c(C(=O)N(C)Cc3ccnc(Cl)c3F)c2C)c1 [Example 107, N5-[(2-chloro-3-fluoropyridin-4-yl)methyl]-3-[(3,5-dimethylphenyl)sulfonyl]-N5,4-dimethyl-1H-pyrrole-2,5-dicarboxamide] | < 1 | < 8
5 | CC(C)c1c(C(=O)N(C)Cc2ccnc(Cl)c2F)[nH]c(C(N)=O)c1S(=O)(=O)c1ccccc1 [Example 108, N2-[(2-chloro-3-fluoropyridin-4-yl)methyl]-3-isopropyl-N2-methyl-4-(phenylsulfonyl)-1H-pyrrole-2,5-dicarboxamide] | < 1 | < 8
6 | Cc1cc(C)cc(S(=O)(=O)c2c(C(N)=O)[nH]c(C(=O)N(C)Cc3ccncc3F)c2C)c1 [Example 109, 3-[(3,5-dimethylphenyl)sulfonyl]-N5-[(3-fluoropyridin-4-yl)methyl]-N5,4-dimethyl-1H-pyrrole-2,5-dicarboxamide] | < 1 | < 8
7 | CC(C)c1c(C(=O)N(C)Cc2ccncc2F)[nH]c(C(N)=O)c1S(=O)(=O)c1ccccc1 [Example 110, N2-[(3-fluoropyridin-4-yl)methyl]-3-isopropyl-N2-methyl-4-(phenylsulfonyl)-1H-pyrrole-2,5-dicarboxamide] | < 1 | < 8
8 | Cc1cc(C)cc(S(=O)(=O)c2c(C(N)=O)[nH]c(C(=O)N(C)Cc3c(F)cncc3F)c2C)c1 [Example 111, N5-[(3,5-difluoropyridin-4-yl)methyl]-3-[(3,5-dimethylphenyl)sulfonyl]-N5,4-dimethyl-1H-pyrrole-2,5-dicarboxamide] | < 1 | < 8
9 | CC(C)c1c(C(=O)N(C)Cc2c(F)cncc2F)[nH]c(C(N)=O)c1S(=O)(=O)c1ccccc1 [Example 112, N2-[(3,5-difluoropyridin-4-yl)methyl]-3-isopropyl-N2-methyl-4-(phenylsulfonyl)-1H-pyrrole-2,5-dicarboxamide] | < 1 | < 8
10 | Cc1cc(C)cc(S(=O)(=O)c2c(C(N)=O)[nH]c(C(=O)N(C)Cc3cc(Cl)ncc3F)c2C)c1 [Example 113, N5-[(2-chloro-5-fluoropyridin-4-yl)methyl]-3-[(3,5-dimethylphenyl)sulfonyl]-N5,4-dimethyl-1H-pyrrole-2,5-dicarboxamide] | < 1 | < 8
11 | CC(C)c1c(C(=O)N(C)Cc2cc(Cl)ncc2F)[nH]c(C(N)=O)c1S(=O)(=O)c1ccccc1 [Example 114, N2-[(2-chloro-5-fluoropyridin-4-yl)methyl]-3-isopropyl-N2-methyl-4-(phenylsulfonyl)-1H-pyrrole-2,5-dicarboxamide] | < 1 | < 8
12 | CC(C)c1c(C(=O)N(C)Cc2ccnc(N)c2F)[nH]c(C(N)=O)c1S(=O)(=O)c1ccccc1 [Example 115, N2-[(2-amino-3-fluoropyridin-4-yl)methyl]-3-isopropyl-N2-methyl-4-(phenylsulfonyl)-1H-pyrrole-2,5-dicarboxamide] | < 1 | < 8
